How the values were obtained:
Test in all cases: relative viability (nuclei count vs DMSO), 5 days (fraction); higher = more cells survive
BGJ398 + AZD7762 = compound: CCN1CCN(c2ccc(Nc3cc(N(C)C(=O)Nc4c(Cl)c(OC)cc(OC)c4Cl)ncn3)cc2)CC1 [BGJ398] + NC(=O)Nc1cc(-c2cccc(F)c2)sc1C(=O)N[C@H]1CCCNC1 [AZD7762] (partner 0.2 µM)
How it was run: (§1)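 Medians of duplicate plates are given as relative viability. That measure is the nuclei count in treated wells divided by the count in vehicle wells. Counts were taken on 4× images of lung cancer cell lines in 1536-well plates, 5 days after pin-tool dosing the day after seeding with one drug alone or a fixed anchor-drug dose plus five library-drug doses (not always all listed) in √10 steps.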

BGJ398 + OSI-027 = compound: CCN1CCN(c2ccc(Nc3cc(N(C)C(=O)Nc4c(Cl)c(OC)cc(OC)c4Cl)ncn3)cc2)CC1 [BGJ398] + COc1cccc2cc(-c3nc([C@H]4CC[C@H](C(=O)O)CC4)n4ncnc(N)c34)[nH]c12 [OSI-027] (partner 0.5 µM)
How it was run: as §1

[1] = compound: C1=CC2=NC=CN=C2C=C1/C=C/3\C(=O)NC(=O)S3 + COc1cc2c(Oc3ccc(NC(=O)C4(C(=O)Nc5ccc(F)cc5)CC4)cc3F)ccnc2cc1OCCCN1CCOCC1 [Foretinib] (partner 0.25 µM)
How it was run: as §1

[2] = compound: C1=CC2=NC=CN=C2C=C1/C=C/3\C(=O)NC(=O)S3 + CS(=O)(=O)CCNCc1ccc(-c2ccc3ncnc(Nc4ccc(OCc5cccc(F)c5)c(Cl)c4)c3c2)o1 [Lapatinib] (partner 2 µM)
How it was run: as §1

| Cell Line | relative viability (BGJ398 + AZD7762; first compound 0.01 µM) | relative viability (BGJ398 + AZD7762; first compound 0.03162 µM) | relative viability (BGJ398 + AZD7762; first compound 0.1 µM) | relative viability (BGJ398 + AZD7762; first compound 0.3162 µM) | relative viability (BGJ398 + AZD7762; first compound 1 µM) | relative viability (BGJ398 + OSI-027; first compound 0.01 µM) | relative viability (BGJ398 + OSI-027; first compound 0.03162 µM) | relative viability (BGJ398 + OSI-027; first compound 0.1 µM) | relative viability (BGJ398 + OSI-027; first compound 0.3162 µM) | relative viability (BGJ398 + OSI-027; first compound 1 µM) | relative viability ([1]; first compound 0.02 µM) | relative viability ([1]; first compound 0.06325 µM) | relative viability ([1]; first compound 0.2 µM) | relative viability ([1]; first compound 0.6325 µM) | relative viability ([1]; first compound 2 µM) | relative viability ([2]; first compound 0.02 µM) | relative viability ([2]; first compound 0.06325 µM) | relative viability ([2]; first compound 0.2 µM) | relative viability ([2]; first compound 0.6325 µM) | relative viability ([2]; first compound 2 µM) |
| --- | --- | --- | --- | --- | --- | --- | --- | --- | --- | --- | --- | --- | --- | --- | --- | --- | --- | --- | --- | --- |
| NCI-H727 | 0.996 | 0.693 | 0.574 | 0.468 | 0.486 | 0.595 | 0.791 | 0.543 | 0.519 | 0.745 | 0.954 | 0.852 | 1.04 | 0.853 | 0.588 | 0.803 | 0.706 | 0.918 | 0.795 | 0.297 |
| NCI-H838 | 0.861 | 0.915 | 1.04 | 0.782 | 0.756 | 0.297 | 0.357 | 0.376 | 0.338 | 0.294 | 1.02 | 1.08 | 1 | 1.02 | 0.874 | 1.06 | 1.09 | 0.969 | 0.827 | 0.707 |
| NCI-H1355 | 0.697 | 0.818 | 0.748 | 0.677 | 0.713 | 0.356 | 0.408 | 0.428 | 0.413 | 0.315 | 0.816 | 0.976 | 1.02 | 0.936 | 0.929 | 0.811 | 0.929 | 1.05 | 0.919 | 0.766 |
| NCI-H1395 | 0.372 | 0.366 | 0.355 | 0.352 | 0.352 | 0.621 | 0.649 | 0.551 | 0.448 | 0.497 | 1.04 | 1.03 | 1 | 0.871 | 1.03 | 1.13 | 1.06 | 1.46 | 0.935 | 0.963 |
| NCI-H1437 | 1.13 | 1.23 | 1.14 | 1.17 | 1.19 | 0.807 | 0.867 | 0.873 | 0.865 | 0.926 | 1.19 | 1.24 | 1.16 | 1.25 | 1.15 | 0.791 | 0.825 | 0.806 | 0.715 | 0.572 |
| NCI-H1651 | 0.465 | 0.442 | 0.478 | 0.374 | 0.471 | 0.562 | 0.661 | 0.728 | 0.635 | 0.709 | 0.774 | 0.734 | 0.911 | 0.796 | 0.75 | 0.793 | 0.899 | 1.05 | 0.718 | 0.685 |
| NCI-H1666 | 0.95 | 0.784 | 0.866 | 0.703 | 0.728 | 0.859 | 0.834 | 0.862 | 0.886 | 0.764 | 1.03 | 0.879 | 0.986 | 0.909 | 0.932 | 0.468 | 0.51 | 0.693 | 0.643 | 0.499 |
| NCI-H1734 | 0.504 | 0.56 | 0.538 | 0.554 | 0.624 | 0.589 | 0.645 | 0.675 | 0.579 | 0.702 | 0.891 | 0.674 | 0.808 | 0.844 | 0.681 | 1.02 | – | 1.11 | 0.999 | 0.756 |
| NCI-H1755 | 0.487 | 0.496 | 0.384 | 0.339 | 0.399 | 0.598 | 0.852 | 0.749 | 0.779 | 0.698 | 0.807 | 0.942 | 0.923 | 0.897 | 0.864 | 0.926 | 0.951 | 1.04 | 0.988 | 0.928 |
| NCI-H1793 | 0.466 | 0.406 | 0.473 | 0.434 | 0.419 | 0.326 | 0.309 | 0.241 | 0.229 | 0.243 | 0.633 | 0.601 | 0.721 | 0.634 | 0.642 | 0.702 | 0.532 | 0.832 | 0.725 | 0.773 |
| NCI-H1915 | 0.696 | 0.665 | 0.691 | 0.576 | 0.724 | 0.59 | 0.614 | 0.62 | 0.582 | 0.687 | 1.11 | 1.12 | 1.15 | 1.09 | 1.04 | 1.01 | 1.1 | 1.02 | 0.928 | 0.971 |
| NCI-H1944 | 0.561 | 0.536 | 0.484 | 0.439 | 0.516 | 0.364 | 0.425 | 0.436 | 0.388 | 0.329 | 0.814 | 0.78 | 0.885 | 0.795 | 0.903 | 0.834 | 0.966 | 0.801 | 0.735 | 0.486 |

Reference: the supplement of paper PMC10307832
